Like-named read-outs stand apart in the source and are kept apart here.

In general, IC50 refers to the midpoint of a concentration-inhibition curve. The inhibition is the relative decrease from the control value, in per cent. A low value points to little suppression.

Experiment [1] has as its target T1, rat lens aldose reductase (RLAR) (Rattus norvegicus, UniProt P07943).
T1 construct: the supernatant that retained the RLAR was collected for further tests; from tissue; host or cells: eye lens of Sprague-Dawley rats
Kind of experiment: Rat lens aldose reductase (RLAR) inhibitory assay. The class given is biochemical. The settings on record: mean ± SD (n = 3); for inhibition at 10 µg/mL: sample concentration 10 μg/mL. The protocol: To extract the RLAR, the eye lens removed from the rats were first homogenized with sodium phosphate buffer (0.1 M, pH 6.2). […] Finally, the supernatant that retained the RLAR was collected for further tests. […] The inhibitory activities of the samples can be calculated using Equation (1):(1) Inhibition (%)=(1−ΔAsample−ΔAblank/ΔAcontrol−ΔAblank)×100% where ΔAcontrol is the absorbance change in 3 min of the tested mixture without the sample; ΔAblank is the absorbance change in 3 min of the tested mixture without RLAR; and ΔAsample is the absorbance change in 3 min of the tested mixture. The IC50 values of the active samples were also calculated and listed, where IC50 indicates the concentration of the tested sample required to consume half of the NADPH.

The target of experiment [2] is T2, human recombinant aldose reductase (Homo sapiens, UniProt P15121).
T2 construct: purchased Wako Pure Chemical Industries Ltd. (Osaka, Japan)
Kind of experiment: Affinity-based ultrafiltration-HPLC screening. The class given is binding. The note with it: ESME incubated with AR 6.9 µM, 37 °C, 30 min, ultrafiltrate analysed. The protocol:
The ultrafiltrate was collected for further HPLC analysis.
HPLC analysis was performed using an Agilent 1100 HPLC instrument (Agilent, Santa Clara, CA, USA) equipped with an Eclipse Plus C18 column (150 mm length, 4.6 mm i.d., and 5 µm particle size; Agilent, Santa Clara, CA, USA). The temperature of the column oven was set at 30 °C and the injection volumes of the samples were 10 µL.

`Oc1cc(O)c2c(c1)O[C@H](c1ccc(O)c(O)c1)[C@@H](O)C2` [Catechin (3), catechin]: the IC50 in experiment [1] (isolated compounds, read-out: IC50) came to 14.8 ± 3.17 µM. The inhibition at 10 µg/mL in experiment [1] (isolated compounds) came to 69.6 ± 1.99%. The “HPLC peak area after incubation with human recombinant aldose reductase vs without” value in experiment [2] is reported as “decreased”.
Regarding `O=C(O)c1cc(O)c(O)c(O)c1` [Gallic acid (1), gallic acid], in experiment [1] (IC50, isolated compounds), the IC50 was found to be 11.5 ± 1.82 µM. The molecule also yielded an inhibition at 10 µg/mL in experiment [1] (isolated compounds) of 80.2 ± 1.56%. The “HPLC peak area after incubation with human recombinant aldose reductase vs without” value in experiment [2] is given as “decreased”.
Take `COC(=O)c1cc(O)c(O)c(O)c1` [Methyl gallate (4), methyl gallate]: in experiment [1] (isolated compounds), at 10 µg/mL the inhibition was 32.2 ± 0.97%. Further, the “HPLC peak area after incubation with human recombinant aldose reductase vs without” value in experiment [2] is “decreased”.
The molecule `Oc1cc(O)c2c(c1)O[C@H](c1ccc(O)c(O)c1)[C@@H](O)[C@@H]2c1c(O)cc(O)c2c1O[C@H](c1ccc(O)c(O)c1)[C@@H](O)C2` [Procyanidin B3 (2), procyanidin B3] showed an inhibition at 10 µg/mL in experiment [1] (isolated compounds) of 44.6 ± 1.99%. For the same molecule, the “HPLC peak area after incubation with human recombinant aldose reductase vs without” value in experiment [2] is on record as “decreased”.
On to `O=c1c(O)c(-c2ccc(O)c(O)c2)oc2cc(O)cc(O)c12` [Quercetin, quercetin, reference compound], for which, in experiment [1] (extracts and fractions), the inhibition at 10 µg/mL was found to be 81.6 ± 3.81%.
